Test results from ChEMBL document CHEMBL1134141, “Diaminopurine-acridine heterodimers for specific recognition of abasic site containing DNA. Influence on the biological activity of the position of the linker on the purine ring” (Bioorg Med Chem Lett, 2001).
pIC50: −log10 of the molar value.

Tests used:
L1210 = experiment: The compound was evaluated for cytotoxicity against L1210 cell line; assay type: functional, cell-based; conditions: Mus musculus
A549 [1] = experiment: The compound was evaluated for cytotoxicity against A549 cell line; assay type: functional, cell-based; conditions: Homo sapiens
A549 [2] = experiment: Cytotoxicity of compound in synergy in BCNU (10 uM) against A549 cell line; assay type: functional, Homo sapiens
A549 [3] = experiment: Cytotoxicity of compound in synergy in 94% BCNU (10 uM) against A549 cell line; assay type: functional, Homo sapiens

| Compound | pIC50 (L1210) | pIC50 (A549 [1]) | Synergy (A549 [2]) | Synergy (A549 [3]) |
| --- | --- | --- | --- | --- |
| COc1ccc2nc3cc(Cl)ccc3c(NCCCC/N=C(\N)NCCCNc3nc(N)c4[nH]cnc4n3)c2c1 | 4.44 | 5.30 | – | – |
| COc1ccc2nc3cc(Cl)ccc3c(NCCCC/N=C(\N)NCCCNc3[nH]c(N)nc4ncnc3-4)c2c1 | < 4.00 | 5.30 | – | – |
| COc1ccc2nc3cc(Cl)ccc3c(NCCCC/N=C(\N)NCCCn3cnc4c(N)nc(N)nc43)c2c1 | 4.22 | 5.19 | 16% | – |
| COc1ccc2nc3cc(Cl)ccc3c(NCCCN(CCCN(CCn3cnc4c(N)ncnc43)C(=N)N)C(=N)N)c2c1 | 4.48 | 5.00 | – | 94% |
